Laboratory results published in patent US20240109868A1, “EP300/CBP MODULATOR, PREPARATION METHOD THEREFOR AND USE THEREOF” (Miracure Biotechnology Limited, priority 2022, published 2024).

Legend:
22Rv1 Cell = assay: 22RV1 cell growth inhibition, CellTiter-Glo, 72 h; format: cell-based; conditions: 22RV1 cells, 72 h culture
How it was run: (§1)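 Cells seeded at 5×10^3/well overnight in RPMI-1640/10% FBS, then exposed to compound (0.5% DMSO final) for 72 h at 37 °C.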

vCap Cell = assay: vCap cell growth inhibition, CellTiter-Glo, 72 h; format: cell-based; conditions: vCap cells, 72 h culture
How it was run: as §1

CBP bromodomain = target: T1, CBP bromodomain (Homo sapiens, UniProt Q92793); assay: CBP AlphaLISA assay kit (CBP bromodomain binding to acetylated histone substrate); conditions: read-out: CBP ALPHA IC50
T1 construct: purchased
Procedure: The biochemical activity of the CBP inhibitors was determined using the CBP AlphaLISA® assay kit. The assay is based on the binding of the CBP bromodomain to the acetylated histone substrate. The compounds were incubated with CBP and the biotinylated substrate for 30 min. Then acceptor beads were added, followed by 15 min of incubation, and donor beads were added, followed by 15 min of incubation. Then the alpha counts were read, the data were analyzed using Prism 7.0, and the IC50 values were calculated. The values are shown as mean f SEM (N=2).

EP300 = target: T2, EP300 (Homo sapiens, UniProt Q09472); assay: Ep300 AlphaLISA assay kit; format: biochemical; conditions: read-out: EP300 ALPHA IC50
T2 construct: purchased
Procedure: The biochemical activity of the EP300 modulators was determined using the Ep300 AlphaLISA® assay kit. The assay is based on the […] of residues in the peptide substrate by enzymatic transfer of acetyl groups from acetyl-CoA to particular lysine. The compounds were incubated with EP300 and then with an antibody combination of an antibody that specifically binds to an acetylated peptide and acceptor beads that bind to an acetylated peptide, followed by streptavidin-labeled donor beads. The alpha counts were read, the data were analyzed using Prism 7.0, and the IC50 values were calculated. The values are shown as mean f SEM (N=2).

T2 sequence (Q09472 whole entry): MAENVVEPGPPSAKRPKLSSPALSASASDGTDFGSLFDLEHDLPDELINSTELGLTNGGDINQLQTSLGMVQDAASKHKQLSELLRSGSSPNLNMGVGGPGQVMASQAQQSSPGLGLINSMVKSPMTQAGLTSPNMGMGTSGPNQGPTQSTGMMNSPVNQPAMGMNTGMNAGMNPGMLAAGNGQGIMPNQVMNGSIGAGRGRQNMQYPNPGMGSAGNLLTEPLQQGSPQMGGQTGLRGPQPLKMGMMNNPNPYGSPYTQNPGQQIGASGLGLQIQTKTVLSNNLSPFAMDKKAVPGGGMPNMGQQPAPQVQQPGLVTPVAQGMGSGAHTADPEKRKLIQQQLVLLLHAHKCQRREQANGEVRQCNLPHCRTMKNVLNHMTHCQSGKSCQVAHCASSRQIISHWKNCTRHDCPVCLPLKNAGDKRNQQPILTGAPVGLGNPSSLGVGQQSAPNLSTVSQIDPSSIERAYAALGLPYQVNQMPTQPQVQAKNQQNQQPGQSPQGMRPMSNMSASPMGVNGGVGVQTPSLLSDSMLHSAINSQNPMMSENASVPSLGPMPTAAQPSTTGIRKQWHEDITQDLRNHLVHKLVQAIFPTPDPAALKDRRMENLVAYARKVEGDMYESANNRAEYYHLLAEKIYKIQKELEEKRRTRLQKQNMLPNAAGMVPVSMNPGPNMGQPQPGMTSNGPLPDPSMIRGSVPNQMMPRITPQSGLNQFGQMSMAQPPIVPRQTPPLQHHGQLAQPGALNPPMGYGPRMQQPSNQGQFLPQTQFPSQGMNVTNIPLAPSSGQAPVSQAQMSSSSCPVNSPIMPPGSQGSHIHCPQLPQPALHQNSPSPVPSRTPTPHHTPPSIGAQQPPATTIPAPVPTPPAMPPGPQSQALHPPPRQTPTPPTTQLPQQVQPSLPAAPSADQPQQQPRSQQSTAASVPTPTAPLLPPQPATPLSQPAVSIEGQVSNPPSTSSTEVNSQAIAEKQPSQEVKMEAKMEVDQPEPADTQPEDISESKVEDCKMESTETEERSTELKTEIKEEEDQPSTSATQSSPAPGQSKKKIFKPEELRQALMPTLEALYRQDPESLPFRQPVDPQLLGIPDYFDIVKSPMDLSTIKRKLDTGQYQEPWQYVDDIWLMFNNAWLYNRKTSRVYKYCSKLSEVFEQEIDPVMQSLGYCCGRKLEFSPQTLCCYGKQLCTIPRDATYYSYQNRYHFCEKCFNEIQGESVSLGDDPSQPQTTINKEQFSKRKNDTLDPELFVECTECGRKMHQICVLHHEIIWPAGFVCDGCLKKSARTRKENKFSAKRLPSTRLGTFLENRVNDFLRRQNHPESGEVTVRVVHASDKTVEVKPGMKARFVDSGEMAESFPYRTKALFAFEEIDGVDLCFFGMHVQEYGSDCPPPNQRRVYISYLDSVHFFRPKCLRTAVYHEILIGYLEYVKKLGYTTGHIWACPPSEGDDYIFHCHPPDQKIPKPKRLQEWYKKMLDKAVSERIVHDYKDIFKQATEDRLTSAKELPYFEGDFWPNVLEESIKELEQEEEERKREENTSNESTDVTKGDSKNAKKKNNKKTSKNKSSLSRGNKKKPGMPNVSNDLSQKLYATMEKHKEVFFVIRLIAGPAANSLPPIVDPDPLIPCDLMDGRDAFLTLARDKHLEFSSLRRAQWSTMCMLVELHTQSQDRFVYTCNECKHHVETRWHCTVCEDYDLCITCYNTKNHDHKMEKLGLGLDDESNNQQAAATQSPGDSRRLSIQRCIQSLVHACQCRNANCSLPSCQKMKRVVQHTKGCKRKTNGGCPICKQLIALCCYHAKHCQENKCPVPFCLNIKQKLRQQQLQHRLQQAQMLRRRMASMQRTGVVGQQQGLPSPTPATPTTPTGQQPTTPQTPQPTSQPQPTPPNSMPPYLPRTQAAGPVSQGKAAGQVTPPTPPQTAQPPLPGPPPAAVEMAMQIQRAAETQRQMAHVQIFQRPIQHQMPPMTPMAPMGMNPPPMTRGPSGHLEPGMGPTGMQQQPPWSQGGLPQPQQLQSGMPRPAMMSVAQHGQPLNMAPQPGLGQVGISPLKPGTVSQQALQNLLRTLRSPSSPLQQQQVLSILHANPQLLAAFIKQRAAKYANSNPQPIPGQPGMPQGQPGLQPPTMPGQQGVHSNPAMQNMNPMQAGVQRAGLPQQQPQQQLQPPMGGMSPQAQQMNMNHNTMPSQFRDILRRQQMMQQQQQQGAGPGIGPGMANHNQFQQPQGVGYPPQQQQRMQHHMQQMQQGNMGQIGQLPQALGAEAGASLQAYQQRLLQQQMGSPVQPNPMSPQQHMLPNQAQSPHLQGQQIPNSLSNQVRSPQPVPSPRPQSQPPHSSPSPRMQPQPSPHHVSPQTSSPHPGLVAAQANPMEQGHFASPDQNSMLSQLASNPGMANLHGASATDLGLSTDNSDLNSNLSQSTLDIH
T1 sequence (Q92793 1085-1192 limits assumed): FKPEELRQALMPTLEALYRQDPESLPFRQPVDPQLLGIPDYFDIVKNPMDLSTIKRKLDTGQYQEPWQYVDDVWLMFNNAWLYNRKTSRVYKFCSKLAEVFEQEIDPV

SMILES	IC50 (22Rv1 Cell; Homo sapiens, 22Rv1, 72 h) [nM]	IC50 (vCap Cell; Homo sapiens, VCaP, 72 h) [nM]	IC50 (CBP bromodomain) [nM]	IC50 (EP300) [nM]	IC50 (22Rv1 Cell) [nM]	IC50 (vCap Cell) [nM]
COC1CCC(c2cc3c(c(N4CCCc5cc(-c6cnn(C)c6)c(C(F)F)cc54)c2)CN(C(C)=O)C3)CC1 (stereo not shown) [Compound M001065]	< 1000	< 1000	< 10			
CC(=O)N1Cc2cc(C3CCOCC3)cc(N3CCCc4cc(-c5cnn(C)c5)c(C(F)F)cc43)c2C1 [Compound M001067]	> 1000	< 1000	< 10	< 10		
CNC(=O)N1CCc2cc(C3CCN(C(=O)c4ccccc4)CC3)cc(N3CCCc4cc(-c5cnn(C)c5)c(C(F)F)cc43)c2C1 [Compound M001076]	> 1000	< 1000	< 10			
CC(=O)N1Cc2cc(C3CCNC(=O)C3)cc(N3CCCc4cc(-c5cnn(C)c5)c(C(F)F)cc43)c2C1 (stereo not shown) [Compound M001126]	< 1000	< 1000	> 10			
CC(=O)N1Cc2cc(C3CCC(=O)N(C)C3)cc(N3CCCc4cc(-c5cnn(C)c5)c(C(F)F)cc43)c2C1 (stereo not shown) [Compound M001173]	< 1000	< 1000	< 10			
CC(=O)N1Cc2cc(C3CCC(=O)NC3)cc(N3CCCc4cc(-c5cnn(C)c5)c(C(F)F)cc43)c2C1 (stereo not shown) [Compound M001174]	> 1000	< 1000	< 10			
CC(=O)N1Cc2cc(C3CCN(CC(C)O)C(=O)C3)cc(N3CCCc4cc(-c5cnn(C)c5)c(C(F)F)cc43)c2C1 (stereo not shown) [Compound M001190]	< 1000	< 1000	< 10			
COCCN1CCC(c2cc3c(c(N4CCCc5cc(-c6cnn(C)c6)c(C(F)F)cc54)c2)CN(C(C)=O)C3)CC1=O (stereo not shown) [Compound M001191]	< 1000	< 1000	< 10			
COC(=O)N1CCc2cccc(N3CCCc4cc(-c5cnn(C)c5)c(C(F)F)cc43)c2C1 [Compound M001202]	> 1000	> 1000	< 10	< 10		
CNC(=O)N1Cc2nc(Cl)nc(N3CCCc4cc(-c5cnn(C)c5)c(C(F)F)cc43)c2C1 [Compound M001242]	> 1000	> 1000	> 10	> 10		
CC(=O)N1Cc2nc(C3CCOCC3)nc(N3CCCc4cc(-c5cnn(C)c5)c(C(F)F)cc43)c2C1 [Compound M001243]	> 1000	> 1000	> 10	> 10		
CNC(=O)N1CCc2nc(C3CCOCC3)nc(N3CCCc4cc(-c5cnn(C)c5)c(C(F)F)cc43)c2C1 [Compound M001245, 4-(7-(Difluoromethyl)-6-(1-methyl-1H-pyrazol-4-yl)-3,4-dihydroquinolin-1(2H)-yl)-N-methyl-2-(tetrahydro-2H-pyran-4-yl)-7,8-dihydropyrido[4,3-d]pyrimidine-6(5H)-carboxamide]	> 1000	> 1000	< 10	< 10		
CCN1CCC(c2cc3c(c(N4CCCc5cc(-c6cnn(C)c6)c(C(F)F)cc54)c2)CN(C(=O)NC)CCC3)CC1=O (stereo not shown) [Compound M001263]	> 1000	> 1000				
CCN1CCC(c2cc3c(c(N4CCCc5cc(-c6cnn(C)c6)c(C(F)F)cc54)c2)CN(C(C)=O)CCC3)CC1=O (stereo not shown) [Compound M001264]	> 1000	> 1000				
CNC(=O)N1CCc2cc(C3CCN(OC)CC3)cc(N3CCCc4cc(-c5cnn(C)c5)c(C(F)F)cc43)c2C1 [Compound M001268]	> 1000	< 1000				
CON1CCC(c2cc3c(c(N4CCCc5cc(-c6cnn(C)c6)c(C(F)F)cc54)c2)CN(C(C)=O)C3)CC1 [Compound M001269]	> 1000	> 1000				
COC(=O)N1CCc2cc(C3CCC(=O)N(CC(C)(C)O)C3)cc(N3CCCc4cc(-c5cnn(C)c5)c(C(F)F)cc43)c2C1 (stereo not shown) [Compound M001272]	> 1000	> 1000				
CON1CCC(c2cc3c(c(N4CCCc5cc(-c6cnn(C)c6)c(C(F)F)cc54)c2)CN(C(=O)OC(C)(C)C)CC3)CC1 [Compound M001274, tert-butyl 8-[7-(difluoromethyl)-6-(1-methylpyrazol-4-yl)-3,4-dihydro-2H-quinolin-1-yl]-6-(1-methoxypiperidin-4-yl)-3,4-dihydro-1H-isoquinoline-2-carboxylate]	> 1000	> 1000				
CON1CCC(c2cc3c(c(N4CCCc5cc(-c6cnn(C)c6)c(C(F)F)cc54)c2)CN(C(=O)OC(C)(C)C)C3)CC1 [Compound M001275]	> 1000	> 1000				
CNC(=O)N1CCc2cc(C3CCN(CC(C)(C)O)C(=O)C3)cc(N3CCCc4cc(-c5cnn(C)c5)c(C(F)F)cc43)c2C1 (stereo not shown) [Compound M001280]	< 1000	> 1000				

SMILES	IC50 (22Rv1 Cell; Homo sapiens, 22Rv1, 72 h) [nM]	IC50 (vCap Cell; Homo sapiens, VCaP, 72 h) [nM]	IC50 (CBP bromodomain) [nM]	IC50 (EP300) [nM]	IC50 (22Rv1 Cell) [nM]	IC50 (vCap Cell) [nM]
CC(=O)N1Cc2cc(C3CCN(C4CCC(=O)NC4=O)C(=O)C3)cc(N3CCCc4cc(-c5cnn(C)c5)c(C(F)F)cc43)c2C1 (stereo not shown) [Compound M001288]	> 1000	> 1000				
CC(=O)N1Cc2cc(C3CCN(S(C)(=O)=O)CC3)cc(N3CCCc4cc(-c5cnn(C)c5)c(C(F)F)cc43)c2C1 [Compound M001296]	< 1000	< 1000				
CC(=O)N1Cc2cc(C3CCC(S(C)(=N)=O)CC3)cc(N3CCCc4cc(-c5cnn(C)c5)c(C(F)F)cc43)c2C1 (stereo not shown) [Compound M001297, (4-(2-acetyl-7-(7-(difluoromethyl)-6-(1-methyl-1H-pyrazol-4-yl)-3,4-dihydroquinolin-1(2H)-yl)isoindol-5-yl)cyclohexyl)(imino)(methyl)-16-sulfanone]	< 1000	< 1000				
CC(=O)N1Cc2cc(C3CCN(S(=O)(=O)C4CC4)CC3)cc(N3CCCc4cc(-c5cnn(C)c5)c(C(F)F)cc43)c2C1 [Compound M001298]	< 1000	< 1000				
CC(=O)N1Cc2cc([C@H]3CC[C@@H](S(C)(=O)=O)CC3)cc(N3CCCc4cc(-c5cnn(C)c5)c(C(F)F)cc43)c2C1 [Compound M001299]	< 1000	< 1000				
CC(=O)N1Cc2cc(C3CCC(N)CC3)cc(N3CCCc4cc(-c5cnn(C)c5)c(C(F)F)cc43)c2C1 (stereo not shown) [Compound M001301, 1-(6-(4-aminocyclohexyl)-4-(7-(difluoromethyl)-6-(1-methyl-1H-pyrazol-4-yl)-3,4-dihydroquinolin-1(2H)-yl)isoindolin-2-yl)ethan-1-one]	> 1000	> 1000				
CC(=O)N[C@H]1CC[C@H](c2cc3c(c(N4CCCc5cc(-c6cnn(C)c6)c(C(F)F)cc54)c2)CN(C(C)=O)C3)CC1 [Compound M001304]	< 1000	< 1000				
CNC(=O)N1CCc2cc(C3CCN(S(=O)(=O)C4CC4)CC3)cc(N3CCCc4cc(-c5cnn(C)c5)c(C(F)F)cc43)c2C1 [Compound M001307]	< 1000	< 1000				
CNC(=O)N1CCc2cc([C@H]3CC[C@@H](NS(C)(=O)=O)CC3)cc(N3CCCc4cc(-c5cnn(C)c5)c(C(F)F)cc43)c2C1 [Compound M001313]	> 1000	< 1000				
CSC1CCC(c2cc3c(c(N4CCCc5cc(-c6cnn(C)c6)c(C(F)F)cc54)c2)CN(C(C)=O)C3)CC1 (stereo not shown) [Compound M001315]	> 1000	< 1000				
CC(=O)N1Cc2cc(C3CCC(N)CC3)cc(N3CCCc4cc(-c5cnn(C)c5)c(C(F)F)cc43)c2C1 (stereo not shown) [Compound M001320]					> 1000	> 1000
CC(=O)N1Cc2cc([C@H]3CC[C@@H](N)CC3)cc(N3CCCc4cc(-c5cnn(C)c5)c(C(F)F)cc43)c2C1 [Compound M001321]	> 1000	> 1000				
CS[C@H]1CC[C@@H](c2cc3c(c(N4CCCc5cc(-c6cnn(C)c6)c(C(F)F)cc54)c2)CN(C(C)=O)C3)CC1 [Compound M001322]	> 1000	> 1000				
CC(=O)N1Cc2cc(C3CCC([S+](C)[O-])CC3)cc(N3CCCc4cc(-c5cnn(C)c5)c(C(F)F)cc43)c2C1 (stereo not shown) [Compound M001323]	> 1000	< 1000				
CSC1CCC(c2cc3c(c(N4CCCc5cc(-c6cnn(C)c6)c(C(F)F)cc54)c2)CN(C(C)=O)C3)CC1 (stereo not shown) [Compound M001324]					> 1000	< 1000
CC(=O)N1Cc2cc(C3CCC(S(C)(=N)=O)CC3)cc(N3CCCc4cc(-c5cnn(C)c5)c(C(F)F)cc43)c2C1 (stereo not shown) [Compound M001327]					> 1000	> 1000
CC(=O)N1Cc2cc(C3CCC([S@@](C)(=N)=O)CC3)cc(N3CCCc4cc(-c5cnn(C)c5)c(C(F)F)cc43)c2C1 (stereo partly shown) [Compound M001328]	> 1000	> 1000				
CC(=O)N1Cc2cc(C3CCC([S@@](C)(=N)=O)CC3)cc(N3CCCc4cc(-c5cnn(C)c5)c(C(F)F)cc43)c2C1 (stereo partly shown) [Compound M001329]					> 1000	> 1000
CON[C@H]1CC[C@@H](c2cc3c(c(N4CCCc5cc(-c6cnn(C)c6)c(C(F)F)cc54)c2)CN(C(C)=O)C3)CC1 [Compound M001340]	> 1000	> 1000				
CON[C@H]1CC[C@H](c2cc3c(c(N4CCCc5cc(-c6cnn(C)c6)c(C(F)F)cc54)c2)CN(C(C)=O)C3)CC1 [Compound M001341]	> 1000	> 1000				
